One data set has as its system CC(O)C(=O)O. In words: cells, lysate or membranes.
Data set [1] has as its target MCT1 (monocarboxylate transporter 1) (Rattus norvegicus, UniProt P53987). As to the kind of experiment: inhibition of L-[…]lactate uptake in Xenopus oocytes. The note with it: read-out: Inhibitor-insensitive component (%). Type of data set: cell-based.
Data set [2] concerns the target T1, MCT2 (monocarboxylate transporter 2) (Rattus norvegicus, UniProt Q63344).
T1 sequence (Q63344 1-489): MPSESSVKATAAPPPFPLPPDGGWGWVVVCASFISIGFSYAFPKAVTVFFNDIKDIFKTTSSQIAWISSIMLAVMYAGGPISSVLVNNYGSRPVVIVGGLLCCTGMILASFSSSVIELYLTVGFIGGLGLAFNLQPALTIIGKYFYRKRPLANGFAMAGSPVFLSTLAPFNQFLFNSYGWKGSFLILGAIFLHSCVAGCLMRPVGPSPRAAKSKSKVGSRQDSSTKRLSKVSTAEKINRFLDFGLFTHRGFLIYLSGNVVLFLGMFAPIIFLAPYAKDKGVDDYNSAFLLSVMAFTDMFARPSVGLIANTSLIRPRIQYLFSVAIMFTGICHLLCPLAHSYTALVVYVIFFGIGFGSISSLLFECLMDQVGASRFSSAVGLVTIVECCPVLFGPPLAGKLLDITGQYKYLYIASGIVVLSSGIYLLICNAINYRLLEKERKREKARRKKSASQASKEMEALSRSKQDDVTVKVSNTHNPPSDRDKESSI
The description is as above. Type of data set: cell-based. As to conditions: read-out: % inhibition at 10 nM.

Chain of MCT1 (monocarboxylate transporter 1) (P53987 whole entry): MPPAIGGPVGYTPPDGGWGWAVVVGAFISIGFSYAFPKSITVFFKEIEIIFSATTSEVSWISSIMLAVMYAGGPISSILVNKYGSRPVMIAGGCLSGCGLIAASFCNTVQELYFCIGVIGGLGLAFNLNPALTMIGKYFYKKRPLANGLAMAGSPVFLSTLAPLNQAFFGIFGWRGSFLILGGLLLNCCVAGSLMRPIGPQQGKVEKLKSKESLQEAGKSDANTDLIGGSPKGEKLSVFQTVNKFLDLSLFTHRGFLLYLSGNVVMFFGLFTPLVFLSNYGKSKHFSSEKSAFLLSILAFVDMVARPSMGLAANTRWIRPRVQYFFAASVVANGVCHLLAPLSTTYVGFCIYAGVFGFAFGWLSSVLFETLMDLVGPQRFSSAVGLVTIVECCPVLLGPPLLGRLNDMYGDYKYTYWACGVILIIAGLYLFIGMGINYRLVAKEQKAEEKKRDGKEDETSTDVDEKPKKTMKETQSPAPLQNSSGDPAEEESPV

Turning to “MCT1 (monocarboxylate transporter 1) (Rattus norvegicus)”, the Km with CC(O)C(=O)O is 4.4 ± 1.5 mM.

Regarding `Cc1n[nH]c(C)c1Cc1sc2c(c1C(=O)N1C[C@H](O)CO1)c(=O)n(C)c(=O)n2CC(C)C` [AR-C155858], the activity at 0.1 µM in data set [1] stood at 1.9 ± 0.6%. Moreover, the inhibition at 0.01 µM in data set [2] was roughly 70%.

In general, Km refers to the substrate concentration at which the rate is half of its maximum. As usually defined, the inhibition is the change of the read-out against control, counted positive when it falls.

The record behind these values is PMC2947196 (2010).
